Assay results: patent US11780842B2, “TYK2 pseudokinase ligands” (Ventyx Biosciences, Inc., priority 2019, dated 2023)

System: IFN-a/Jak1Tyk2
Experiment: Co-stimulation assay in lysed whole blood: IFNa (JAK1/TYK2) stimulated STAT1 phosphorylation
Type: cell-based
Settings: lysed human whole blood, IFNa 100 ng/mL (co-stimulated with GM-CSF 10 ng/mL), pSTAT1 by flow cytometry
Description: Example 4: Co-Stimulation Assay in Lysed Whole Blood; JAK2: GM-CSF Stimulated STATS Phosphorylation and JAK1/TYK2 Stimulated STAT1 Phosphorylation Assay
Human Blood Lysis Using Abcam's RBC Lysis Buffer
Dilute RBC lysis buffer to 1× in distilled water. Add 2 mL blood to 38 mL of 1×RBC-lysis buffer. Incubate for 15 mins at RT, in dark. Spin at 300 g, 5 mins, to collect the pellet. Re-lyse if necessary. Re-suspend pellet in 5 mL of cRPMI.
Compound and Cytokine Treatment
Aliquot 80 μL of lysed human blood in to wells of 96 deep-well plate. Add 10 μl of (10× conc.) of different concentrations of compounds to all wells except controls (unstained and unstimulated) and mix it with the help of 100 uL multichannel. Add 10 uL of RPMI media in controls. For dilution of compounds and dilution range please refer Appendix. Incubate on water bath or CO2 incubator for 1 hour at 37° C. Add 10 μL of (10× conc.) of cytokine mix (GM-CSF and IFNa) (final conc. 10 ng/mL of GM-CSF and 100 ng/mL of IFNa) to each well except unstimulated and unstained controls and incubate further for 20 minutes on water bath at 37° C.
Add 900 μL of prewarmed 1× Fix/Lyse solution (Appendix) and mix it properly using 1000 μl multichannel, incubate further on water bath at 37° C. for 10 minutes (which includes time of addition). Centrifuge at 800× g for 5 minutes at 40° C.; remove 900 uL of supernatant and add 900 μL of 1×PBS. Centrifuge at 800× g for 5 minutes at 40° C., remove 900 μL of supernatant. Wash one more time with 900 μL of PBS (optional) and resuspend pellets in 100 uL of PBS.
Disrupt the pellet by gentle tapping and resuspend in 1000 μL of BD Phosflow Perm Buffer III and incubate plate on ice for 30 minutes. Centrifuge plate at 800× g for 5 minutes at 40° C. Wash two more times with 1000 μL of BD Pharmingen Stain Buffer.
Disrupt the pellet by gentle tapping. Resuspend pellets in 100 uL of Stain Buffer and add 5 μL of pSTAT5_AF488 Ab and 5 uL of pSTAT1_PE in all wells except unstained control and mix properly using 200 μl multichannel, incubate overnight at […]. Add 900 μL of wash buffer and centrifuge at 1800 rpm for 3 minutes at […]. Wash one more time with 1000 μL of BD Pharmingen Stain Buffer. Finally resuspend the pellet in 300 uL of BD Pharmingen Stain Buffer. Transfer the cells to 96-well v-bottom plate and acquire the cells in Beckman Coulter CytExpert. Acquiring cells in Flow Cytometer: Keep the threshold value to 250 and cell concentration should not exceed 100-500 cells/μL. Acquire at least 5,000-10,000 cells.
RPMI 1640 Complete Medium: RPMI 1640 media+10% FBS.
Cytokine dilution: 1) GM-CSF Stock at 100 ug/mL. Prepare an intermediate dilution of 1 ug/mL by adding 2 uL of stock into 198 uL of cRPMI. Further dilute to 100 ng/mL by adding 100 uL of the intermediate stock to 900 uL of cRPMI. 2) IFNa Stock at 200 ug/mL. Dilute IFNa stock 1:200 by adding 5 uL of stock into the 1000 uL of 100 ng/mL GM-CSF working stock as above to give a combined working stock of 1000 ng/mL of IFNa and 100 ng/mL GM-CSF (lox). Keep it on ice until used.
Lyse/Fix buffer preparation: Dilute 5× Lyse/Fix buffer to 1× using MQ water and keep at 37° C. until used.
BD Phosflow perm buffer III: Keep on ice/fridge.

CNc1cc2nc3c(cnn13)C(=O)NCCOc1cccc(c1)N2 [Compound 7, (1^3E,1^4E)-1^7-(methylamino)-4-oxa-2,7-diaza-1(5,3)-pyrazolo[1,5-a]pyrimidina-3(1,3)-benzenacyclooctaphan-8-one]
IC50: ≤ 500 nM

CNc1cc2nn3c(cnc13)C(=O)NCCOc1cccc(c1)N2 [Compound 12, (E)-1^8-(methylamino)-4-oxa-2,7-diaza-1(6,3)-imidazo[1,2-b]pyridazina-3(1,3)-benzenacyclooctaphan-8-one]
IC50: 100 to 1000 nM

CNc1cc2nc3c(cnn13)C(=O)NCC(C)(C)c1cccc(c1)N2 [Compound 13, (1^3E,1^4E)-4,4-dimethyl-1^7-(methylamino)-2,6-diaza-1(5,3)-pyrazolo[1,5-a]pyrimidina-3(1,3)-benzenacycloheptaphan-7-one]
IC50: ≤ 500 nM

[2H]C([2H])([2H])Nc1cc2nc3c(cnn13)C(=O)NCCOc1cccc(c1)N2 [Compound 14, (1^3E,1^4E)-1^7-((methyl-d3)amino)-4-oxa-2,7-diaza-1(5,3)-pyrazolo[1,5-a]pyrimidina-3(1,3)-benzenacyclooctaphan-8-one]
IC50: ≤ 500 nM

[2H]C1([2H])NC(=O)c2cnn3c(NC)cc(nc23)Nc2cccc(c2)OC1([2H])[2H] [Compound 15, (1^3E,1^4E)-1^7-(methylamino)-4-oxa-2,7-diaza-1(5,3)-pyrazolo[1,5-a]pyrimidina-3(1,3)-benzenacyclooctaphn-8-one-5,5,6,6-d4]
IC50: ≤ 500 nM

CNc1cc2nc3c(cnn13)C(=O)NCCc1cccc(c1)N2 [Compound 16, (1^3E,1^4E)-1^7-(methylamino)-2,6-diaza-1(5,3)-pyrazolo[1,5-a]pyrimidina-3(1,3)-benzenacycloheptaphan-7-one]
IC50: ≤ 500 nM

CNc1cc2nc3c(cnn13)C(=O)NCCOc1cccc(n1)N2 [Compound 17, (1^3E,1^4E)-1^7-(methylamino)-4-oxa-2,7-diaza-1(5,3)-pyrazolo[1,5-a]pyrimidina-3(2,6)-pyridinacyclooctaphan-8-one]
IC50: ≤ 500 nM

CNc1cc2nc3c(cnn13)C(=O)NCCCc1cccc(c1)N2 [Compound 18, (1^3E,1^4E)-1^7-(methylamino)-2,7-diaza-1(5,3)-pyrazolo[1,5-a]pyrimidina-3(1,3)-benzenacyclooctaphan-8-one]
IC50: 100 to 1000 nM

CNc1cc2nc3c(cnn13)C(=O)NCCOc1cc(F)cc(c1)N2 [Compound 19, (1^3E,1^4E)-3^5-fluoro-1^7-(methylamino)-4-oxa-2,7-diaza-1(5,3)-pyrazolo[1,5-a]pyrimidina-3(1,3)-benzenacyclooctaphan-8-one]
IC50: 100 to 1000 nM

CNc1cc2nc3c(cnn13)C(=O)NCCOc1ccccc1N2 [Compound 20, (1^3E,1^4E)-1^7-(methylamino)-4-oxa-2,7-diaza-1(5,3)-pyrazolo[1,5-a]pyrimidina-3(1,2)-benzenacyclooctaphan-8-one]
IC50: 100 to 1000 nM

CNc1cc2nc3c(cnn13)C(=O)NCCOc1cc(ccc1F)N2 [Compound 21, (1^3E,1^4E)-3^4-fluoro-1^7-(methylamino)-4-oxa-2,7-diaza-1(5,3)-pyrazolo[1,5-a]pyrimidina-3(1,3)-benzenacyclooctaphan-8-one]
IC50: 100 to 1000 nM

CNc1cc2nc3c(cnn13)C(=O)NCCOc1ccc(F)c(c1)N2 [Compound 22, (1^3E,1^4E)-3^6-fluoro-1^7-(methylamino)-4-oxa-2,7-diaza-1(5,3)-pyrazolo[1,5-a]pyrimidina-3(1,3)-benzenacyclooctaphan-8-one]
IC50: 100 to 1000 nM

CNc1cc2nc3c(cnn13)C(=O)NCCOc1cc(ccc1Cl)N2 [Compound 23, (1^3E,1^4E)-3^4-chloro-1^7-(methylamino)-4-oxa-2,7-diaza-1(5,3)-pyrazolo[1,5-a]pyrimidina-3(1,3)-benzenacyclooctaphan-8-one]
IC50: 100 to 1000 nM

[2H]C([2H])([2H])Nc1cc2nc3c(cnn13)C(=O)NCCCc1cccc(c1)N2 [Compound 24, (1^3E,1^4E)-1^7-((methyl-d3)amino)-2,7-diaza-1(5,3)-pyrazolo[1,5-a]pyrimidina-3(1,3)-benzenacyclooctaphan-8-one]
IC50: 100 to 1000 nM

CNc1cc2nc3c(cnn13)C(=O)NC(C)COc1cccc(c1)N2 (centres unmarked) [Compound 25, (1^3E,1^4E)-6-methyl-1^7-(methylamino)-4-oxa-2,7-diaza-1(5,3)-pyrazolo[1,5-a]pyrimidina-3(1,3)-benzenacyclooctaphan-8-one]
IC50: 100 to 1000 nM

CNc1cc2nc3c(cnn13)C(=O)NCCOc1cc(C)cc(c1)N2 [Compound 26, (1^3E,1^4E)-3^5-methyl-1^7-(methylamino)-4-oxa-2,7-diaza-1(5,3)-pyrazolo[1,5-a]pyrimidina-3(1,3)-benzenacyclooctaphan-8-one]
IC50: 100 to 1000 nM

CNc1cc2nc3c(cnn13)C(=O)NCCOc1cc(c(Cl)cc1Cl)N2 [Compound 27, (1^3E,1^4E)-3^4,3^6-dichloro-1^7-(methylamino)-4-oxa-2,7-diaza-1(5,3)-pyrazolo[1,5-a]pyrimidina-3(1,3)-benzenacyclooctaphan-8-one]
IC50: 100 to 1000 nM

CNc1cc2nc3c(cnn13)C(=O)NCCOc1cc(cc(F)c1F)N2 [Compound 28, (1^3E,1^4E)-3^4,3^5-difluoro-1^7-(methylamino)-4-oxa-2,7-diaza-1(5,3)-pyrazolo[1,5-a]pyrimidina-3(1,3)-benzenacyclooctaphan-8-one]
IC50: 100 to 1000 nM

CNc1cc2nc3c(cnn13)C(=O)NCCOc1cc(c(F)cc1F)N2 [Compound 29, (1^5E,1^4E)-3^4,3^6-difluoro-1^7-(methylamino)-4-oxa-2,7-diaza-1(5,3)-pyrazolo[1,5-a]pyrimidina-3(1,3)-benzenacyclooctaphan-8-one]
IC50: 100 to 1000 nM

CNc1cc2nc3c(cnn13)C(=O)NCC(C)Oc1ccccc1N2 (centres unmarked) [Compound 30, (1^3E,1^4E)-5-methyl-1^7-(methylamino)-4-oxa-2,7-diaza-1(5,3)-pyrazolo[1,5-a]pyrimidina-3(1,2)-benzenacyclooctaphan-8-one]
IC50: 100 to 1000 nM

CNc1cc2nc3c(cnn13)C(=O)NCCOc1cc(ccc1OC)N2 [Compound 31, (1^3E,1^4E)-3^4-methoxy-1^7-(methylamino)-4-oxa-2,7-diaza-1(5,3)-pyrazolo[1,5-a]pyrimidina-3(1,3)-benzenacyclooctaphan-8-one]
IC50: 100 to 1000 nM

CNc1cc2nc3c(cnn13)C(=O)NCCOc1ccc(F)cc1N2 [Compound 32, (1^3E,1^4E)-3^5-fluoro-1^7-(methylamino)-4-oxa-2,7-diaza-1(5,3)-pyrazolo[1,5-a]pyrimidina-3(1,2)-benzenacyclooctaphan-8-one]
IC50: 100 to 1000 nM

CNc1cc2nc3c(cnn13)C(=O)NCCOc1cc(Cl)cc(c1)N2 [Compound 33, (1^3E,1^4E)-3^5-chloro-1^7-(methylamino)-4-oxa-2,7-diaza-1(5,3)-pyrazolo[1,5-a]pyrimidina-3(1,3)-benzenacyclooctaphan-8-one]
IC50: 100 to 1000 nM

CNc1cc2nc3c(cnn13)C(=O)NCCOc1cc(F)ccc1N2 [Compound 34, (1^3E,1^4E)-3^4-fluoro-1^7-(methylamino)-4-oxa-2,7-diaza-1(5,3)-pyrazolo[1,5-a]pyrimidina-3(1,2)-benzenacyclooctaphan-8-one]
IC50: 100 to 1000 nM

CNc1cc2nc3c(cnn13)C(=O)NCCCCOc1cccc(c1)N2 [Compound 35, (1^3E,1^4E)-1^7-(methylamino)-4-oxa-2,9-diaza-1(5,3)-pyrazolo[1,5-a]pyrimidina-3(1,3)-benzenacyclodecaphan-10-one]
IC50: 100 to 1000 nM

CNc1cc2nc3c(cnn13)C(=O)NC(C)COc1ccccc1N2 (centres unmarked) [Compound 36, (1^3E,1^4E)-6-methyl-1^7-(methylamino)-4-oxa-2,7-diaza-1(5,3)-pyrazolo[1,5-a]pyrimidina-3(1,2)-benzenacyclooctaphan-8-one]
IC50: 100 to 1000 nM
